This assay deals with human GLP1R (Homo sapiens (Human), UniProt P43220). The assay can be described thus: In vitro cAMP signal activation in human GLP1R stably-expressing cell line (hGLP1R-HEK293). As to conditions: cAMP concentration in hGLP1R-HEK293; 100% = 1 nM human GLP-1 (7-37). It counts as cell-based. On the procedure:
<Test Example 1> Measurement of In Vitro cAMP Signal Activation of a Compound in Human GLP1R
A human GLP1R stably-expressing cell line (hGLP1R-HEK293) was used in the experiment. The cells were cultured in a Dulbecco's modified Eagle's medium (DMEM) containing 10% fetal bovine serum (Sigma-Aldrich), 100 units/mL penicillin G and 100 μg/mL streptomycin sulfate (Gibco), and 500 μg/mL Geneticin (Gibco), under a moist atmosphere containing 5% CO2, at 37° C.
hGLP1R-HEK293 was seeded in 96 well plates at 2.0×10^4 cells per well and cultured over night. The medium for culturing the cells was changed to 50 μL of Medium A (DMEM, 20 mM HEPES, 0.05% BSA, 0.5 mM 3-isobutyl-1-methylxanthine) the next day, and the cells were incubated at 37° C. for 30 min. Then, 50 μL of Medium B (DMEM, 20 mM HEPES, 0.05% BSA, 0.5 mM 3-isobutyl-1-methylxanthine) containing GLP-1 or the compound was added, and the cells were incubated at 37° C. for an additional 30 min. Then, 100 μL of Assay lysis buffer (Applied Bioscience) was added, and the cells were incubated at 37° C. for 30 min. The cAMP concentration was quantified using cAMP HiRange kit (Cisbio Bioassays).
By setting the cAMP concentration when the human GLP-1 (7-37) was put into action at a concentration of 1 nM to 100%, the cAMP concentration of each well was converted to a reaction rate (%).
human GLP1R, sequence (P43220 24-463): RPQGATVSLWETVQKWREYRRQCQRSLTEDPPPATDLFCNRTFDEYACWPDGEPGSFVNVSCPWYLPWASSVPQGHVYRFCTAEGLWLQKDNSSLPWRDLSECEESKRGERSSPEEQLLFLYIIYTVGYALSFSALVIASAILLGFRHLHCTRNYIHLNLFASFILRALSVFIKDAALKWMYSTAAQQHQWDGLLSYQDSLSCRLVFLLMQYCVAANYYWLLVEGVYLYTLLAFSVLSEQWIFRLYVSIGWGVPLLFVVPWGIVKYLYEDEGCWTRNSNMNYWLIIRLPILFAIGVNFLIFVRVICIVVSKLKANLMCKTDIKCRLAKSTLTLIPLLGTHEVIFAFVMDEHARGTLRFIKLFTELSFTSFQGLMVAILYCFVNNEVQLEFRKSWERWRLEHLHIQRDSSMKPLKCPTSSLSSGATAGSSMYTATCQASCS
Regarding `COCCn1ncc2cc(-n3ccn(-c4c5c(nn4-c4cc(C)c(F)c(C)c4)CCN(C(=O)c4cc6cc(C7CCOCC7)ccc6n4[C@@]4(c6noc(=O)[nH]6)C[C@@H]4C)[C@H]5C)c3=O)ccc21` [Example 16, 3-[(1S,2S)-1-[2-[(4S)-2-(4-fluoro-3,5-dimethylphenyl)-3-[3-[1-(2-methoxyethyl)indazol-5-yl]-2-oxoimidazol-1-yl]-4-methyl-6,7-dihydro-4H-pyrazolo[4,3-c]pyridine-5-carbonyl]-5-(oxan-4-yl)indol-1-yl]-2-methylcyclopropyl]-4H-1,2,4-oxadiazol-5-one], it took 0.51 nM to reach a half-maximal effect (EC50).

`COCCn1ncc2cc(-n3ccn(-c4c5c(nn4-c4ccc(F)c(C)c4)CCN(C(=O)c4cc6cc(N7CCOC(C)(C)C7)ccc6n4[C@@]4(c6noc(=O)[nH]6)C[C@@H]4C)C5)c3=O)ccc21` [compound 58, 3-[(1S,2S)-1-[5-(2,2-dimethylmorpholin-4-yl)-2-[2-(4-fluoro-3-methylphenyl)-3-[3-[1-(2-methoxyethyl)indazol-5-yl]-2-oxoimidazol-1-yl]-6,7-dihydro-4H-pyrazolo[4,3-c]pyridine-5-carbonyl]indol-1-yl]-2-methylcyclopropyl]-4H-1,2,4-oxadiazol-5-one]: it took 7.6 nM to reach a half-maximal effect (EC50).

On to `Cc1cc(-n2nc3c(c2-n2ccn(-c4ccc5c(cnn5CC(F)(F)F)c4F)c2=O)[C@H](C)N(C(=O)c2cc4cc(C5CCOCC5)ccc4n2[C@@]2(c4noc(=O)[nH]4)C[C@@H]2C)CC3)cc(C)c1F` [Example 28, 3-[(1S,2S)-1-[2-[(4S)-2-(4-fluoro-3,5-dimethylphenyl)-3-[3-[4-fluoro-1-(2,2,2-trifluoroethyl)indazol-5-yl]-2-oxoimidazol-1-yl]-4-methyl-6,7-dihydro-4H-pyrazolo[4,3-c]pyridine-5-carbonyl]-5-(oxan-4-yl)indol-1-yl]-2-methylcyclopropyl]-4H-1,2,4-oxadiazol-5-one], for which the EC50 (in general, the concentration at which the effect is half-maximal) came out at 1.9 nM.

`COCCn1ncc2cc(-n3ccn(-c4c5c(nn4-c4cc(C)c(F)c(C)c4)CCN(C(=O)c4cc6cc([C@H]7CCO[C@@H](C)C7)ccc6n4[C@@]4(c6noc(=O)[nH]6)C[C@@H]4C)[C@H]5C)c3=O)ccc21` [compound 62, 3-[(1S,2S)-1-[2-[(4S)-2-(4-fluoro-3,5-dimethylphenyl)-3-[3-[1-(2-methoxyethyl)indazol-5-yl]-2-oxoimidazol-1-yl]-4-methyl-6,7-dihydro-4H-pyrazolo[4,3-c]pyridine-5-carbonyl]-5-[(2S,4S)-2-methyloxan-4-yl]indol-1-yl]-2-methylcyclopropyl]-4H-1,2,4-oxadiazol-5-one] showed an EC50 of 1.1 nM.

For the compound `Cc1cc(-n2nc3c(c2-n2ccn(-c4ccc5c(cnn5C)c4Cl)c2=O)[C@H](C)N(C(=O)c2cc4cc([C@H]5CCOC(C)(C)C5)ccc4n2[C@@]2(c4noc(=O)[nH]4)C[C@@H]2C)CC3)ccc1F` [Example 49, 3-[(1S,2S)-1-[2-[(4S)-3-[3-(4-chloro-1-methylindazol-5-yl)-2-oxoimidazol-1-yl]-2-(4-fluoro-3-methylphenyl)-4-methyl-6,7-dihydro-4H-pyrazolo[4,3-c]pyridine-5-carbonyl]-5-[(4S)-2,2-dimethyloxan-4-yl]indol-1-yl]-2-methylcyclopropyl]-4H-1,2,4-oxadiazol-5-one], a half-maximal effect (EC50) was put at 3.8 nM.

In turn, `COCCn1ncc2cc(-n3ccn(-c4c5c(nn4-c4cc(C)c(F)c(C)c4)CCN(C(=O)c4cc6cc(-c7ccnc(OC)c7C)ccc6n4[C@@]4(c6noc(=O)[nH]6)C[C@@H]4C)[C@H]5C)c3=O)ccc21` [Example 11, 3-[(1S,2S)-1-[2-[(4S)-2-(4-fluoro-3,5-dimethylphenyl)-3-[3-[1-(2-methoxyethyl)indazol-5-yl]-2-oxoimidazol-1-yl]-4-methyl-6,7-dihydro-4H-pyrazolo[4,3-c]pyridine-5-carbonyl]-5-(2-methoxy-3-methylpyridin-4-yl)indol-1-yl]-2-methylcyclopropyl]-4H-1,2,4-oxadiazol-5-one] had an EC50 of 1.1 nM.

For the origin of these results see patent US10858356B2, “Pyrazolopyridine derivative having GLP-1 receptor agonist effect” (Chugai Seiyaku Kabushiki Kaisha, priority 2016, dated 2020).
